Results published in US11767305B2, “Advantageous benzofuran compositions for mental disorders or enhancement” (Tactogen Inc, priority 2020, dated 2023).
Where two headings read alike, the source gives them in different places.

Tests used:
[1] = Salt screening experiments (PXRD result); format: physicochemical; conditions: S-5-MAPB Pure Enantiomer (Pattern 1A Enantiomer) + counterion 1:1 molar ratio, 40° C.
healthy human individual = test: Human effects of non-racemic 5-MAPB, self-reported ratings (Good, Bad, Open); format: in vivo; conditions: averaged from all sessions, 54 mg 5-MAPB HCl oral in two halves
Procedure: The effects of non-racemic 5-MAPB HCl were tested by a healthy human individual at four different ratios of enantiomers plus the racemate as a control: • 54 mg S and 0 mg R (100% S) • 47 mg Sand 7 mg R (87% S) • 36 mg S and 18 mg R (67% S) • 27 mg S and 27 mg R (50% S) • 7 mg S and 47 mg R (13% S)
Two trials were carried out at each ratio, except for 13% S where only one was conducted. Trials were at least 72 h apart.
5-MAPB HCl was dissolved in 1.5 ml distilled water and consumed in two halves, separated by 1 hour. Starting at 3 hours after administration, tablets of 250 mg ascorbic acid and capsules of 300 mg alpha lipoic acid were taken ad libitum (approximately every hour for a total of 4 administrations).
Measurements were made approximately every 2 hours until post 6 hours and the maximum ratings per session were analyzed. Additionally, an index of good drug effects versus emotional openness, calculated as (Open−Good)/(200, the theoretical maximum of Open+Good), was constructed at each time point and the maximum analyzed. In healthy volunteers, Good Ratings can be considered a predictor of abuse liability. Accordingly, this index can be used as an indicator of the balance of a therapeutic effect (emotional openness) vs abuse liability.
Historic data of two trials 50 mg RS-5-MAPB Cl from the same individual were also included in the analysis for comparison.

[2] = target: human 5-HT transporter (hSERT) (Homo sapiens (Human), UniProt P31645); test: Human serotonin transporter  assay ([3H]imipramine radioligand, CHO cells); format: binding; conditions: for IC50: 2 nM [3H]imipramine; for Ki: Cheng Prusoff equation
Procedure: Benzofuran derivatives were evaluated for inhibiting the human 5-HT transporter (hSERT) as expressed in CHO cells using an antagonist radioligand assay (Tatsumi, M. et al. (1999), Eur. J Pharmacol., 368: 277-283). […] Test compounds were assayed in three trials at […], and 0.94868 μM.

[3] = target: T1, serotonin (5-HT) transporter (SERT) (Rattus norvegicus (Rat), UniProt P31652); test: Rat synaptosome SERT [3H]5-HT release assay; conditions: 5 nM [3H]5-HT
[4] = target: T1, serotonin (5-HT) transporter (SERT); test: Rat synaptosome SERT [3H]5-HT uptake inhibition assay; conditions: 5 nM [3H]5-HT
5-HT1BR = 5-HT1BR (Homo sapiens (Human), UniProt P28222); test: 5-HT1BR cAMP secondary messenger agonist assay (HitHunter, CHO-K1); format: cell-based
Excerpt: The 5-HT1BR cAMP secondary messenger agonist assay used a panel of CHO-K1 cell lines stably expressing non-tagged GPCRs that endogenously signal through cAMP. Hit Hunter® cAMP assays monitored the activation of a GPCR via Gi and Gs secondary messenger signaling in a homogenous, non-imaging assay format using DiscoverX Enzyme Fragment Complementation (EFC) with β-galactosidase as the functional endpoint.
The enzyme was split into two complementary portions: Enzyme Acceptor (EA) and Enzyme Donor (ED). Exogenously introduced ED fused to cAMP (ED-cAMP) competed with endogenously generated cAMP for binding to an anti-cAMP-specific antibody. Active β-galactosidase was formed by complementation of exogenous EA to any unbound ED-cAMP.
Cell lines were expanded from freezer stocks according to standard procedures. Cells were seeded in a total volume of 20 μL into white walled, 384-well microplates and incubated at 37° C. for the appropriate time prior to testing. cAMP modulation was determined using the DiscoverX HitHunter cAMP XS+ assay.
For agonist determination, cells were incubated with sample (in the presence of EC80 forskolin to induce response if measuring Gi secondary messenger signaling). Media was aspirated from cells and replaced with 15 μL 2:1 HBSS/10 mM Hepes:cAMP XS+ Ab reagent. Intermediate dilution of sample stocks was performed to generate 4×sample in assay buffer (optionally containing 4×EC80 forskolin). 5 μL of 4×sample was added to cells and incubated at 37° C. or room temperature for 30 or 60 minutes, as appropriate. Final assay vehicle concentration was 1%.

MAO-A = MAO-A (Homo sapiens (Human), UniProt P21397); test: MAO-A inhibition assay (kynuramine); format: biochemical
Sequence of MAO-A (P21397 whole entry, looked up, species assumed): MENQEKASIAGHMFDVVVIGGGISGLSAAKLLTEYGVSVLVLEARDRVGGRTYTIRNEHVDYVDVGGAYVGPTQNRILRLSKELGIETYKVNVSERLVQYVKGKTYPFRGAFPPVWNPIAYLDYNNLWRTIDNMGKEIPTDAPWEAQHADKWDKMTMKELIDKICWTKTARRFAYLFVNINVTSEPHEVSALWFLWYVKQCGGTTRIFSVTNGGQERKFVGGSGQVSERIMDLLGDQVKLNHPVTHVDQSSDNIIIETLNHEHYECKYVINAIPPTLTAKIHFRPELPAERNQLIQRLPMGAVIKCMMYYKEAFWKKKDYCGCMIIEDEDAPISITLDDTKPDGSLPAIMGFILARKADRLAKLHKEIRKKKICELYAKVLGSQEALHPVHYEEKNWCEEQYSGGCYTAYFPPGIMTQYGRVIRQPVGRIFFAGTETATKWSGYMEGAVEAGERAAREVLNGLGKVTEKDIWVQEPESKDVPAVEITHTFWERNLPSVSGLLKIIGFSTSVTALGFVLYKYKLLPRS
Procedure: MAO-A and test compounds were preincubated at 37° C. for 15 minutes before substrate addition. Test compounds were assayed at 10 concentrations with the highest concentration either 30 or 10 μM and subsequent concentrations using a 0.33 dilution factor. The reaction was initiated by addition of kynuramine and incubated at 37° C. for 30 minutes. The reaction was terminated by addition of NaOH. The amount of 4-hydroquioline formed was determined through spectrofluorimetric readout with the emission detection at 380 nm and excitation wavelength 310 nm.

SERT = SERT (Homo sapiens (Human), UniProt P31645); test: hSERT release assay in CHO cells ([3H]serotonin); conditions: EC50 SERT (Mean ± SEM, nM), CHO cells expressing hSERT
DAT = DAT (Homo sapiens (Human), UniProt Q01959); test: hDAT release assay in CHO cells ([3H]dopamine); conditions: EC50 DAT (Mean ± SEM, nM), CHO cells expressing hDAT
[5] = read-out: [3H]5-HT release via SERT EC50
[6] = read-out: Inhibition of [3H]5-HT Uptake at SERT IC50

Question: Which “PXRD Result” value ([1]; solvent Acetone) does the source give for `O=[N+]([O-])O` [HNO3] here?
Answer: Its value is “N/A (gel)”.

Question: And the “PXRD Result” value ([1]; solvent EtOH:water 90:10)?
Answer: Its value is “N/A (gel)”.

Question: What about the “PXRD Result” value ([1]; solvent MeOH:water 90:10) of the same molecule?
Answer: Its value is “N/A (gel)”.

Question: What about the “PXRD Result” value ([1]; solvent THF) of the same molecule?
Answer: Its value is “N/A (gel)”.

Question: Which results are given for `CN[C@@H](C)Cc1ccc2occc2c1` [100% S-5-MAPB]?
Answer: Bad (healthy human individual; maximum 0-100 rating of bad drug effects): 1%; Open (healthy human individual; maximum 0-100 rating of emotional openness): 65%; Good (healthy human individual; maximum 0-100 rating of good drug effects): 55%

Question: For “1-(benzofuran-6-yl)-N-methylbutan-2-amine [Compound R-6-MBPB]”, which IC50 ([2]; read-out: SERT IC50) is on record?
Answer: Its IC50 is 5.7 µM.

Question: What about the Ki ([2]; read-out: SERT Ki) of the same molecule?
Answer: The Ki was 2.6 µM.

Question: And the EC50 [3, 5]?
Answer: Its EC50 is 172 ± 82.2 nM.

Question: And the IC50 [4, 6]?
Answer: The IC50 was 702 ± 262 nM.

Question: For `O=P(O)(O)O` [Compound H3PO4], which “PXRD Result” value ([1]; solvent MeOH:water 90:10) is on record?
Answer: Its value is “N/A (gel)”.

Question: For `CNC(C)C(=O)c1ccc2occc2c1` (single isomer, unassigned) [Enantiomer 2 BK-5-MAPB, 1-(benzofuran-5-yl)-2-(methylamino) propan-1-one], which EC50 (5-HT1BR; 5HT1B Agonist (μM)) is on record?
Answer: Its EC50 is 3.07 µM.

Question: Which IC50 ([2]; SERT IC50 (μM)) does the source give for `CCC(NC)C(=O)c1ccc2ccoc2c1` (single isomer, unassigned; (-)) [(−)-BK-6-MBPB, 1-(benzofuran-6-yl)-2-(methylamino)butan-1-one] here?
Answer: Its IC50 is 3.7 µM.

Question: What about the Ki ([2]; SERT Ki (μM)) of the same molecule?
Answer: Its Ki is 1.7 µM.

Question: What about the “Hill Coef.” value (5-HT1BR) of the same molecule?
Answer: Its value is 1.9551.

Question: And the EC50 (5-HT1BR; 5-HT1BR EC50 (μM))?
Answer: Its EC50 is 7.52 µM.

Question: With `CN[C@@H](C)Cc1ccc2ccoc2c1` [Compound S-6-MAPB, (S)-1-(benzofuran-6-yl)-N-methylpropan-2-amine] as the molecule, how does the IC50 ([2]; SERT IC50 (μM)) read?
Answer: The IC50 was 6.7 µM.

Question: What about the IC50 (MAO-A) of the same molecule?
Answer: The IC50 was 5.39 µM.

Question: What about the EC50 ([3]; [3H]5-HT release via SERT EC50 (nM)) of the same molecule?
Answer: Its EC50 is 20.6 ± 2.7 nM.

Question: What about the “Hill Coef.” value (5-HT1BR) of the same molecule?
Answer: The value was 1.21.

Question: And the EC50 (5-HT1BR; 5-HT1BR EC50 (μM))?
Answer: The EC50 was 0.102 µM.

Question: What about the EC50 (5-HT1BR; 5HT1B Agonist (μM)) of the same molecule?
Answer: The EC50 was 0.1 µM.

Question: And the IC50 ([4]; Inhibition of [3H]5-HT Uptake at SERT IC50 (nM))?
Answer: The IC50 was 90.9 ± 5.9 nM.

Question: Which results are given for `CN[C@H](C)Cc1ccc2occc2c1` [75% R-5-MAPB]?
Answer: EC50 (SERT): 122 ± 13 nM; EC50 (DAT): 794 ± 182 nM

Question: For “1-(benzofuran-6-yl)-N-methylbutan-2-amine [Compound S-6-MBPB]”, which IC50 ([2]; read-out: SERT IC50) is on record?
Answer: Its IC50 is 2.7 µM.

Question: And the Ki ([2]; read-out: SERT Ki)?
Answer: The Ki was 1.2 µM.

Question: And the EC50 [3, 5]?
Answer: The EC50 was 54.1 ± 33.9 nM.

Question: What about the IC50 [4, 6] of the same molecule?
Answer: Its IC50 is 217 ± 45.8 nM.

Question: With `N=C(N)NCCC[C@H](N)C(=O)O` [L-Arginine] as the molecule, how does the “PXRD Result” value ([1]; solvent Acetone) read?
Answer: The value was “N/A (gel)”.

Question: What about the “PXRD Result” value ([1]; solvent EtOH:water 90:10) of the same molecule?
Answer: The value was “N/A (gel)”.

Question: And the “PXRD Result” value ([1]; solvent MeOH:water 90:10)?
Answer: Its value is “N/A (gel)”.

Question: What about the “PXRD Result” value ([1]; solvent THF) of the same molecule?
Answer: Its value is “N/A (gel)”.

Question: What does the source list for `CCC(NC)C(=O)c1ccc2occc2c1` (single isomer, unassigned; (+)) [(+)-BK-5-MBPB, 1-(benzofuran-5-yl)-2-(methylamino) butan-1-one]?
Answer: IC50 ([2]; SERT IC50 (μM)): 6.5 µM; Ki ([2]; SERT Ki (μM)): 3 µM; EC50 (5-HT1BR; 5-HT1BR EC50 (μM)): > 30 µM

Question: For `O=S(=O)(O)O` [Compound H2SO4], which “PXRD Result” value ([1]; solvent Acetone) is on record?
Answer: The value was “N/A (gel)”.

Question: And the “PXRD Result” value ([1]; solvent EtOH:water 90:10)?
Answer: Its value is “N/A (gel)”.

Question: And the “PXRD Result” value ([1]; solvent MeOH:water 90:10)?
Answer: Its value is “N/A (gel)”.

Question: What about the “PXRD Result” value ([1]; solvent THF) of the same molecule?
Answer: Its value is “N/A (gel)”.

Question: For `CCC(NC)C(=O)c1ccc2ccoc2c1` (single isomer, unassigned; (+)) [(+)-BK-6-MBPB, 1-(benzofuran-6-yl)-2-(methylamino)butan-1-one], which IC50 ([2]; SERT IC50 (μM)) is on record?
Answer: Its IC50 is 29 µM.

Question: And the Ki ([2]; SERT Ki (μM))?
Answer: Its Ki is 13 µM.

Question: And the EC50 (5-HT1BR; 5-HT1BR EC50 (μM))?
Answer: Its EC50 is greater than 30 µM.

Question: What does the source list for Fumaric?
Answer: PXRD Result ([1]; solvent Acetone): N/A (gel); PXRD Result ([1]; solvent MeOH:water 90:10): N/A (gel); PXRD Result ([1]; solvent THF): N/A (gel)
